Source: ChEMBL document CHEMBL1201862, “PubChem BioAssay data set” (2004)
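Dose response: 5 concentrations. Exposure: 48 h. Format: 96-well plates. Endpoint: linear interpolation; highest concentration if not reached. GI50: concentration for 50% inhibition of growth.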 Calls of active or inactive are those of the source. Cut-off read from the data, not from the text of the source: active = GI50 up to about 1.1 µM and inactive = higher.

Legend:
Assay in all cases: growth of human tumour cells (NCI), 48 h
[1] = test system: 786-0
[2] = test system: COLO 205
[3] = test system: HCC 2998
[4] = test system: HOP-62
[5] = test system: HT-29
[6] = test system: K562
[7] = test system: MCF7
[8] = test system: MDA-MB-231
[9] = test system: MDA-MB-435
[10] = test system: MOLT-4
[11] = test system: Malme-3M
[12] = test system: OVCAR-4
[13] = test system: PC-3
[14] = test system: SF-295
[15] = test system: SF-539
[16] = test system: SK-MEL-2
[17] = test system: SNB-19
[18] = test system: SNB-75
[19] = test system: SW-620
[20] = test system: T47D

SMILES | GI50 [1] | GI50 [2] | GI50 [3] | GI50 [4] | GI50 [5] | GI50 [6] | GI50 [7] | GI50 [8] | GI50 [9] | GI50 [10] | GI50 [11] | GI50 [12] | GI50 [13] | GI50 [14] | GI50 [15] | GI50 [16] | GI50 [17] | GI50 [18] | GI50 [19] | GI50 [20]
CC(Oc1ccccc1Cl)C(=O)NN1C(=O)CC(=O)N(c2ccccc2)C1=S (stereo not given) | 94.8 µM (inactive) | 32.2 µM (inactive) | 82.2 µM (inactive) | 46.7 µM (inactive) | 54.5 µM (inactive) | 33.7 µM (inactive) | 31 µM (inactive) | 42.7 µM (inactive) | 42.6 µM (inactive) | 30 µM (inactive) | > 100 µM (inactive) | 54 µM (inactive) | 40.8 µM (inactive) | 39.1 µM (inactive) | 66.7 µM (inactive) | 34.4 µM (inactive) | 71.1 µM (inactive) | 49.1 µM (inactive) | 55.7 µM (inactive) | 31.9 µM (inactive)
CC[C@@]1(O)C(=O)OCc2c1c(Cl)c1n(c2=O)Cc2cc3ccccc3nc2-1 | 1.22 µM (inactive) | 5.52 µM (inactive) | 3.4 µM (inactive) | 0.733 µM (active) | 2.18 µM (inactive) | 2.1 µM (inactive) | 0.708 µM (active) | 61 µM (inactive) | 8.95 µM (inactive) | 0.327 µM (active) | 4.53 µM (inactive) | 8.97 µM (inactive) | 4.93 µM (inactive) | 1.22 µM (inactive) | 2.08 µM (inactive) | 12.3 µM (inactive) | 2.36 µM (inactive) | 1.84 µM (inactive) | 1.95 µM (inactive) | 1.31 µM (inactive)
Cn1c2ccccc2c(=O)c2c(O)cc3c(c21)CC(C1(C)CO1)O3 (stereo not given) | 1.71 µM (inactive) | 6.1 µM (inactive) | 1.79 µM (inactive) | 3.15 µM (inactive) | 4.41 µM (inactive) | 0.26 µM (active) | 0.462 µM (active) | 2.03 µM (inactive) | 1.64 µM (inactive) | 0.0665 µM (active) | 10.5 µM (inactive) | 8.83 µM (inactive) | 3.37 µM (inactive) | 9.44 µM (inactive) | 3.2 µM (inactive) | 0.887 µM (active) | 10.4 µM (inactive) | 7.28 µM (inactive) | 1.17 µM (inactive) | 11.5 µM (inactive)
CN(C)Cc1c(O)ccc2c1c1c(n2C)C(=O)c2ccccc2C1=O | 7.21 µM (inactive) | 6.76 µM (inactive) | 3.45 µM (inactive) | 15.1 µM (inactive) | 1.4 µM (inactive) | 3.12 µM (inactive) | 5.86 µM (inactive) | 7.8 µM (inactive) | 4.35 µM (inactive) | 0.544 µM (active) | 3.72 µM (inactive) | 4.28 µM (inactive) | 3.9 µM (inactive) | 6.17 µM (inactive) | 10.3 µM (inactive) | 5.31 µM (inactive) | 6.19 µM (inactive) | 12.3 µM (inactive) | 4.72 µM (inactive) | 11.7 µM (inactive)
CC(=O)N1C(Nc2nccs2)CCN1c1ccccc1 (stereo not given) | > 10 µM (inactive) | > 10 µM (inactive) | > 10 µM (inactive) | > 10 µM (inactive) | > 10 µM (inactive) | > 10 µM (inactive) | > 10 µM (inactive) | > 10 µM (inactive) | > 10 µM (inactive) | > 10 µM (inactive) | > 10 µM (inactive) | > 10 µM (inactive) | > 10 µM (inactive) | > 10 µM (inactive) | > 10 µM (inactive) | > 10 µM (inactive) | > 10 µM (inactive) | > 10 µM (inactive) | > 10 µM (inactive) | > 10 µM (inactive)
COC(=O)/C(C#N)=C(/NCCN)Nc1ccccc1 | > 100 µM (inactive) | > 100 µM (inactive) | > 100 µM (inactive) | > 100 µM (inactive) | > 100 µM (inactive) | > 100 µM (inactive) | > 100 µM (inactive) | > 100 µM (inactive) | > 100 µM (inactive) | > 100 µM (inactive) | > 100 µM (inactive) | > 100 µM (inactive) | > 100 µM (inactive) | > 100 µM (inactive) | > 100 µM (inactive) | > 100 µM (inactive) | > 100 µM (inactive) | 57.3 µM (inactive) | > 100 µM (inactive) | > 100 µM (inactive)
CN(C)/C=N/S(=O)(=O)c1nn2c(C=O)c(-c3ccccc3)nc2s1 | 5.62 µM (inactive) | 4.53 µM (inactive) | 36.1 µM (inactive) | 47.2 µM (inactive) | 1.94 µM (inactive) | 3.9 µM (inactive) | 4.93 µM (inactive) | 6.81 µM (inactive) | 12.4 µM (inactive) | 3.21 µM (inactive) | 12.9 µM (inactive) | 22.7 µM (inactive) | 14.1 µM (inactive) | 52.8 µM (inactive) | 17.7 µM (inactive) | 43 µM (inactive) | 36 µM (inactive) | 59.7 µM (inactive) | 3.76 µM (inactive) | 15.7 µM (inactive)
CC(=O)C(C(=O)c1ccc(C)cc1)[C@H]1OC(C)(C)O[C@H]1[C@H]1COC(C)(C)O1 (stereo not given in full) | 2.88 µM (inactive) | 10.3 µM (inactive) | 7.24 µM (inactive) | 6.12 µM (inactive) | 2.2 µM (inactive) | 1.78 µM (inactive) | 1.97 µM (inactive) | 5.82 µM (inactive) | 2.24 µM (inactive) | 1.66 µM (inactive) | 6.92 µM (inactive) | 2.53 µM (inactive) | 2.55 µM (inactive) | 7.78 µM (inactive) | 1.87 µM (inactive) | 2.92 µM (inactive) | 9.95 µM (inactive) | 3.78 µM (inactive) | 1.84 µM (inactive) | 6.53 µM (inactive)
CC(=O)Oc1ccc2oc(=O)cc(C)c2c1 | > 100 µM (inactive) | > 100 µM (inactive) | > 100 µM (inactive) | > 100 µM (inactive) | > 100 µM (inactive) | > 100 µM (inactive) | > 100 µM (inactive) | > 100 µM (inactive) | > 100 µM (inactive) | > 100 µM (inactive) | > 100 µM (inactive) | > 100 µM (inactive) | > 10 µM (inactive) | > 100 µM (inactive) | > 100 µM (inactive) | > 100 µM (inactive) | > 100 µM (inactive) | > 100 µM (inactive) | > 100 µM (inactive) | > 100 µM (inactive)
c1ccc2c(c1)Sc1nccc3ccnc-2c13 | 80.4 µM (inactive) | 48.3 µM (inactive) | 33.3 µM (inactive) | 35.8 µM (inactive) | 11.9 µM (inactive) | 71.3 µM (inactive) | 12.6 µM (inactive) | > 100 µM (inactive) | 39.5 µM (inactive) | 8.26 µM (inactive) | 31.6 µM (inactive) | 59.2 µM (inactive) | 39.2 µM (inactive) | 33.3 µM (inactive) | 47.6 µM (inactive) | > 100 µM (inactive) | 20.7 µM (inactive) | 15.2 µM (inactive) | 19.3 µM (inactive) | 27.7 µM (inactive)
CN1c2ccccc2C(=O)Nc2cnc(Cl)nc21 | 35.8 µM (inactive) | > 100 µM (inactive) | > 100 µM (inactive) | 31.1 µM (inactive) | > 100 µM (inactive) | > 100 µM (inactive) | > 100 µM (inactive) | 44.3 µM (inactive) | > 100 µM (inactive) | > 100 µM (inactive) | > 100 µM (inactive) | 93.1 µM (inactive) | > 100 µM (inactive) | 46.3 µM (inactive) | 49.1 µM (inactive) | > 100 µM (inactive) | 36.6 µM (inactive) | 39.2 µM (inactive) | > 100 µM (inactive) | > 100 µM (inactive)
Cc1nc(N)sc1/N=N/c1ccccc1Br | 36.6 µM (inactive) | > 54.7 µM (inactive) | 8.87 µM (inactive) | 39.3 µM (inactive) | 35.9 µM (inactive) | > 65.9 µM (inactive) | 35.4 µM (inactive) | 37.3 µM (inactive) | 24.3 µM (inactive) | > 52.2 µM (inactive) | 26.2 µM (inactive) | > 35.3 µM (inactive) | 33.3 µM (inactive) | 44.9 µM (inactive) | > 44.1 µM (inactive) | 34 µM (inactive) | > 44.5 µM (inactive) | 10.3 µM (inactive) | > 53.1 µM (inactive) | 15.8 µM (inactive)
Cc1cc(C)c2nccc(NCCCN(C)C)c2c1[N+](=O)[O-] | 36.2 µM (inactive) | 14.8 µM (inactive) | 22.8 µM (inactive) | 47.9 µM (inactive) | 18.7 µM (inactive) | 31 µM (inactive) | 30.5 µM (inactive) | 51.1 µM (inactive) | 29.6 µM (inactive) | 39.6 µM (inactive) | 19.3 µM (inactive) | 13.8 µM (inactive) | 20.6 µM (inactive) | 26.1 µM (inactive) | 34.9 µM (inactive) | 23.8 µM (inactive) | > 100 µM (inactive) | 24.9 µM (inactive) | 26.9 µM (inactive) | 33.3 µM (inactive)
COC(=O)[C@]1(c2cc3ccccc3[nH]2)CC2CNC1C1OC(C)(C)OC21 (stereo not given in full) | > 100 µM (inactive) | > 100 µM (inactive) | > 100 µM (inactive) | > 100 µM (inactive) | > 100 µM (inactive) | 73.6 µM (inactive) | > 100 µM (inactive) | 64.7 µM (inactive) | 84.5 µM (inactive) | 66.4 µM (inactive) | > 100 µM (inactive) | > 100 µM (inactive) | > 100 µM (inactive) | > 100 µM (inactive) | > 100 µM (inactive) | > 100 µM (inactive) | > 100 µM (inactive) | > 100 µM (inactive) | > 100 µM (inactive) | 52.4 µM (inactive)
